Like-named read-outs stand apart in the source and are kept apart here.
Columns and labels:
T. pseudonana = test: Re-supply experiment, growth via in vivo fluorescence; type: cell-based, Thalassiosira pseudonana
Protocol: (§1) A. Re-supply Experiment: For both colimitation experiments (T. pseudonana and P. tricornutum), each remaining culture was split in four just after the protein harvest time point. For the T. pseudonana study, the cultures were re-supplied with either 1) nothing, 2) 100 pM B12, 3) 400 nM Fetotal, or 4) both 100 pM B12 and 400 nM Fe. For the P. tricornutum study, the cultures were re-supplied with either 1) nothing, 2) 100 pM B12, 3) 100 nM Fetotal, or 4) both 100 pM B12 and 100 nM Fe.
(§2) For both studies, each culture was monitored for growth via in vivo fluorescence.

P. tricornutum = test system: P. tricornutum
Protocol: as §1, §2

P. tricornutum cells = test: Cobalamin (57Co-B12) uptake rate in P. tricornutum cell lines overexpressing CBA1; type: cell-based, Phaeodactylum tricornutum; details: CBA1 overexpression vs wild type and Urease-OE1; exponentially growing cells, B12-replete (100 pM B12), 24 hours
Protocol: B12 Uptake Rate Assessments: Inorganic ^57Co was removed from a carrier-free ^57Co-B12 stock solution (MP Biomedicals) via Chelex-100 (Price et al. (1988/1989) “Preparation and Chemistry of the Artificial Algal Culture Medium Aquil,” Biol Oceanogr 6: 443-461) and the remaining solution was used as a radiotracer in cultures of P. tricornutum. Strains (wild type, two cell lines overexpressing CBA1_48322 and one line overexpressing urease) were grown through three successive transfers into media as described above, with 100 pM B12 and 80 μg/mL zeocin added (zeocin not added to wild type). When the cells were in mid-exponential growth in the third transfer, each strain was used to inoculate (3%) three 28 mL polycarbonate tubes containing 20 mL of growth media with 100 pM B12 and 80 μg/mL zeocin and allowed to acclimate for 3 hours. […] B12 uptake was measured by assessing the percentage of added tracer that was taken up into the particulate fraction via gamma counting as previously described (Bertrand et al. (2007) supra) and assuming that total B12 concentrations were 100 pM for the period of uptake. Cell growth was monitored by fluorescence and then translated to cell number via calibration curves created during growth of the 3rd transfer. […]

With `C/C1=C2/[N-][C@H]([C@H](CC(N)=O)[C@@]2(C)CCC(=O)NC[C@H](C)OP(=O)([O-])O[C@H]2[C@@H](O)[C@@H](n3cnc4cc(C)c(C)cc43)O[C@@H]2CO)[C@]2(C)N=C(/C(C)=C3N=C(/C=C4N=C1[C@@H](CCC(N)=O)C\4(C)C)[C@@H](CCC(N)=O)[C@]\3(C)CC(N)=O)[C@@H](CCC(N)=O)[C@]2(C)CC(N)=O.[Co+2]` (stereo in doubt) [cobalamin] the growth after re-supply (T. pseudonana; low cobalamin culture re-supplied with 100 pM B12) was “rescued the growth”.

For iron, the growth after re-supply (P. tricornutum; low cobalamin/low Fe culture, iron addition alone (100 nM Fe total)) was “rescued”, the growth after re-supply (P. tricornutum; low iron culture re-supplied with 100 nM Fe total) was “rescued the growth” and the growth after re-supply (T. pseudonana; low iron culture re-supplied with 400 nM Fe total) was “rescued the growth”.

B1: CBA1: cobalamin acquisition protein of P. tricornutum (isoform Pt48322), overexpressed as a YFP fusion in the native host (protein, listed as Phaeodactylum tricornutum)
chain: DEPPACLTSTADLSVDIFTDKVEPLFSQGWNVTYHNTYKIANNLFDNTTYLLYQCGSTPPADVVDNGNFNAVLEIPLSNVGLSQTPHIGFMEQLELVDEIAAFLTDTDFISSPCFLDEIAAGNVLTLVEPSEGVDAPATGNTALSAGTVAFVASFTQVPFDNTVNIQEYSELTNVAVFEWVKFFSVFFNKEHTANQVVEAAESRFDCVAQNAGAVQADNMPVKPVVLWAYYSDFCGGWDVAECPNYYCEFANACGAEIISSTEGNTTVCGAPYMTTEELVELGKDADHWIYPSSNWDTASETFGEQLQNMKAVQDQQVFDYQASGENAWFEQRYAEYYNVLADFCAVVGTTQPLTGRSWFRNVFTEPVGSLPDCSPTQSANILDDVHICFLPTTGGAAAGGGSGSGGSSAKAIAVGTAALAAGLLSLIHVLLF
modifications: YFP fusion
notes: cobalamin acquisition protein of P. tricornutum (isoform Pt48322), overexpressed as a YFP fusion in the native host
B1 was tested, and the “enhancement of cell specific radiolabeled cobalamin uptake rates” value (P. tricornutum cells) was 2 to 3 fold.
